Source: patent US20060199772A1, “Use of a proteasome inhibitor in the treatment of endothelial dysfunction and/or in a low-dose proteasome inhibitor therapy” (Charite'-Universitaetsmedizin Berlin, priority 2002, published 2006)
Entries after “also recorded” stand apart in the source; their conditions may differ. Where a SMILES comes first, the peptide text is derived from it. The star is where a group is joined. Cbz = O=C(OCc1ccccc1)*

Assays:
eNOS mRNA [1] = assay: eNOS mRNA levels by real-time RT-PCR in CPAE cells; type: cell-based, bovine
Experimental: (§1) The bovine pulmonary artery endothelial cell line (CPAE cells) was purchased from the American Type Culture Collection (ATCC, # CCL-209) and was cultured in MEM supplemented with 5% FCS, 1.5 g/L sodium bicarbonate, 0.11 g/L sodium pyruvate, 100 U/mL penicillin, and 100 μg/ml streptomycin. Human umbilical vein endothelial cells (HUVECs) were isolated and cultured as described previously (Stangl et al. Homocysteine inhibits TNF-α-induced endothelial adhesion molecule expression and monocyte adhesion via nuclear factor-κB dependent pathwas. Biochem Biophys Commun. 2001; 280:1093-1100). Purity of HU-VECs was assessed by von Willebrand factor staining. For experiments, cells were seeded onto […] dishes and were treated with either proteasome inhibitors MG132, MG262, with the non-proteasomal cathepsin inhibitor ALLM, or with solvent (DMSO) for the times and concentrations indicated. In some experiments, the transcription inhibitor α-amanitin (2.5 μg/mL) was pre-incubated one hour before addition of proteasome inhibitor. Cell viability was assessed by trypan blue exclusion. For HUVECs, the inventors used only second- to third-passage cells for all experiments. For phalloidin-DAPI double staining, cells were fixed with 4% paraformaldehyde, permeabilized with 1% Triton, and blocked with 1% FCS. The inventors took cell photos with a Zeiss camera and analysed them with Axiovert 3.0 software.
After treatment, cells were lysed in Trizol reagent (Gibco Life Technologies, Karlsruhe, Germany) and 800 ng of total RNA were reversed transcribed with random hexamers. Primer sequences were synthesized by TIB Molbiol (Berlin, Germany), and TaqMan probes by Eurogentec (Seraing, Belgium). Table 1 summarizes the sequences of primers and probes used in this study. mRNA expression was standardized to the HPRT (hypoxanthine phosphoribosyl transferase) gene as a housekeeping gene, the transcription level of which were not influenced under our experimental conditions. PCR amplification was carried out in 25 μL TaqMan Universal PCR Master Mix (Perkin Elmer Applied Biosystems, Foster City, Calif.) containing either 0.3 or 0.9/μmol/L primer, 0.2/μmol/L TaqMan probe, and 1 μl of the reverse transcription reaction in a 5700 Sequence Detection System (Perkin Elmer Applied Biosystems). Thermal cycling conditions comprised an initial denaturation step at 95° C. for 10 minutes, followed by 95° C. for 15 seconds and 60° C. for 1 minute for 40 cycles. Size and purity of the amplification products were verified on a 20% PAA gel. The CT (threshold cycle) is defined as the number of cycles required for the fluorescence signal to exceed the detection threshold. The expression of the target gene relative to the housekeeping gene was calculated as the difference between the threshold values for the two genes.
The SYBR Green method was applied for quantitative amplification of bovine eNOS mRNA. In our analysis with the transcription inhibitor α-amanitin—which blocks RNA polymerase II, whereas RNA polymerase I is insensitive to this toxin (Lindell T J et al. Specific inhibition of nuclear RNA polymerase II by alpha-amanitin. Science. 1970; 170: 447-449)—the inventors standardized eNOS mRNA expression to RP29 (ribosomal protein 29) gene as housekeeping gene. Thermal cycling conditions were identical to the TaqMan PCR.

eNOS [2] = assay: eNOS protein expression by Western blot in CPAE cells; type: cell-based, bovine; conditions: for upregulation of eNOS protein (specificity comparison with MG132): equipotent doses
Experimental: as §1
(§2) After treatment, cells were washed twice with PBS and lysed in extraction buffer containing in mmol/L: Tris/HCl 50 (pH 7.4), KCl 154, glucose 5, EDTA 0.5, PMSF 1, DTT 2, and 1% Triton X-100. Total protein (50 μg per lane) was subjected to SDS-PAGE and membranes were probed with anti-eNOS monoclonal antibody (1:2500) or with anti-ubiquitin antibody (1:1000). Membranes were incubated with secondary anti-mouse antibody (1:2500) conjugated to alkaline phosphatase for eNOS or with anti-rabbit antibody conjugated to horseradish peroxidase (1:10000) for ubiquitin. Bands were visualized by using BCIP and Nitro Blue Tetrazolium (Sigma) for eNOS, and by employing the ECL detection system (Amersham) for ubiquitin.

eNOS [3] = assay: eNOS protein expression by Western blot in HUVECs; type: cell-based, human
Experimental: as §1, with “For phalloidin-DAPI double staining, cells were fixed with 4% paraformaldehyde, permeabilized with 1% Triton, and blocked with 1% FCS.” left out, “software. […]” for “software.”

proteasome = assay: Accumulation of poly-ubiquitinylated proteins (anti-ubiquitin Western blot) in CPAE cells; type: cell-based, bovine
Experimental: as §1, §2

eNOS mRNA [4] = assay: eNOS mRNA levels by real-time RT-PCR in HUVECs, with or without TNF-α; type: cell-based, human; conditions: 48 hours
Experimental: Purity of HU-VECs was assessed by von Willebrand factor staining. For experiments, cells were seeded onto 6-mm diameter dishes and were treated with either proteasome inhibitors MG132, MG262, with the non-proteasomal cathepsin inhibitor ALLM, or with solvent (DMSO) for the times and concentrations indicated. In some experiments, the transcription inhibitor α-amanitin (2.5 μg/mL) was pre-incubated one hour before addition of proteasome inhibitor. Cell viability was assessed by trypan blue exclusion. For HUVECs, the inventors used only second- to third-passage cells for all experiments.
For eNOS expression in HUVECs, cells were treated with DMSO (control), TNF-α (1, 2.5 and 5 ng/ml) and TNF-α (same concentrations) in the presence of 70 nM MG132, for 48 hours, whereupon eNOS mRNA levels were measured (see Method 3).
After treatment, cells were lysed in Trizol reagent (Gibco Life Technologies, Karlsruhe, Germany) and 800 ng of total RNA were reversed transcribed with random hexamers. Primer sequences were synthesized by TIB Molbiol (Berlin, Germany), and TaqMan probes by Eurogentec (Seraing, Belgium). […] The CT (threshold cycle) is defined as the number of cycles required for the fluorescence signal to exceed the detection threshold. The expression of the target gene relative to the housekeeping gene was calculated as the difference between the threshold values for the two genes.

eNOS [5] = assay: eNOS activity, L-[3H]arginine to L-[3H]citrulline conversion in extracts of treated CPAE cells; type: cell-based, bovine
Experimental: eNOS activity was assessed by the formation of L-[^3H]citrulline from L-[^3H]arginine after separation of the amino acids by cation exchange chromatography. Endothelial cells were washed with PBS and lysed in the same extraction buffer as for Western blot analysis. The inventors added 50 μg of total protein to the reaction mixture containing 50 mmol/L Hepes pH 7.4, 0.1% Triton X-100, 1 mmol/L EDTA, 1.25 mmol/L CaCl2, 1 mmol/L DTT, 1 μmol/L FAD, 15 μmol/L BH4, 1 mmol/L NADPH, and 1 μCi L-[^3H]arginine. Incubation was performed for 30 minutes at 37° C. Reactions were terminated by adding 0.5 ml of ice-cold Dowex (Na^+ form). L-[^3H]citrulline was separated from L-[^3H]arginine by Dowex chromatography, and L-[^3H]citrulline formation was quantified by liquid scintillation counting. The inventors subtracted the values obtained from samples incubated without cell extracts. […] In some samples, CaCl2 was omitted from the reaction buffer to exclude any contribution of inducible NO synthase (iNOS).

rat aortic rings = assay: Vasorelaxation studies in pretreated rat aortic rings (organ chamber); type: cell-based; conditions: 48 hours
Experimental: Thoracic aortas from male Wistar rats were rapidly excised, cleaned of connective tissue, and cut into rings 2 to 3 mm in length for organ-chamber experiments. Rings were incubated with MG132 100 nmol/L, 250 nmol/L, or solvent, or TNF-α (250 pg/ml) in the presence and absence of 250 nM MG132, for 48 hours in MEM at 37° C. containing 50 U/mL penicillin, 50 μg/mL streptomycin, 0.1% BSA, and 1 μg/mL polymyxin B. The rings were then mounted on platinum hooks in 10 ml jacketed organ baths containing modified Krebs-Henseleit solution (composition in mmol/L: NaCl 144, KCl 5.9, CaCli 1.6, MgSO^4− 1.2, KH2PO4^− 1.2, NaHCO3^− 25, and D-glucose 11.1) and diclofenac 1 μmol/L. Tension was gradually adjusted to 2 g over 1 hour. The solution in the bath was kept at 37° C. with a gas mixture of […]. Following equilibration and submaximal precontraction with phenylephrine (0.05 μmol/L), relaxation to increasing concentrations (1 nmol/L to 1 μmol/L) of the endothelium-dependent vasodilator acetylcholine was performed to obtain cumulative concentration-response curves. Selected studies were conducted in rings treated with L-NAME (1 mmol/L) before phenylephrine exposure. Maintenance of smooth-muscle integrity following incubation with the proteasome inhibitor or solvent was confirmed by evaluation of endothelium-independent vasodilation to papaverine (1 nmol/L to 1 μmol/L).

CPAE cells = assay: Cell viability by trypan blue exclusion; type: cell-based, bovine
Experimental: as §1, with “For phalloidin-DAPI double staining, cells were fixed with 4% paraformaldehyde, permeabilized with 1% Triton, and blocked with 1% FCS.” left out

[6] = tested on: cultured neonatal rat cardiomyocytes; conditions: cited from earlier work
cardiomyocytes = conditions: cited from earlier work
[7] = rat aortic rings pretreated 100 and 250 nmol/L

Compound: CC[C@H](C)[C@@H]1NC(=O)CNC(=O)[C@@H]2Cc3c([nH]c4cc(O)ccc34)[S+]([O-])C[C@@H](NC(=O)CNC1=O)C(=O)N[C@@H](CC(N)=O)C(=O)N1C[C@H](O)C[C@H]1C(=O)N[C@@H]([C@@H](C)[C@@H](O)CO)C(=O)N2 (stereo in doubt) [α-amanitin]
- effect on overall eNOS mRNA levels (eNOS mRNA [1]; 2.5 μg/mL, pre-incubated 1 hour): reduced overall eNOS mRNA levels

Compound: CC(C)C[C@H](NC(=O)[C@H](CC(C)C)NC(=O)[C@H](CC(C)C)NC(=O)OCc1ccccc1)B(O)O [MG262]
- upregulation of eNOS protein (specificity comparison with MG132) (eNOS [2]): also upregulates eNOS; also recorded: Comparable results; also recorded: induced upregulation of eNOS protein to an extent similar to that caused by MG132

Compound: CC(C)C[C@@H](C=O)NC(=O)[C@H](CC(C)C)NC(=O)[C@H](CC(C)C)NC(=O)OCc1ccccc1 [MG132, N-carbobenzoxy-L-leucinyl-L-leucinyl-L-leucinal] (Cbz-Leu-Leu-Leu-aldehyde)
- effect on eNOS expression at 20 nmol/L (eNOS [2]; 20 nmol/L): did not affect eNOS expression
- time from which eNOS upregulation is significant (eNOS [2]; 50 nmol/L): 24 h
- duration of enhanced eNOS protein after a single dose (eNOS [2]; 100 nmol/L single dose): up to 10 days
- effect on eNOS protein levels at higher concentrations (eNOS [2]; 500 nmol/L and above): decreased eNOS protein levels
- effect on eNOS protein levels at low concentrations (eNOS [2]; 50 to 250 nmol/L): gradually increased eNOS protein levels
- time at which the rise of eNOS protein expression began (eNOS [2]; incubation with single dose): 16 h
- eNOS protein expression versus control (eNOS [2]; single dose 100 nmol/L, 48 hours): 2.4 fold
- eNOS protein expression in HUVECs (eNOS [3]): dose-dependent increase in eNOS
- concentration from which poly-ubiquitinylated proteins accumulate (proteasome): ≥ 50 nmol/L
- proteasome inhibition at 20 nmol/L (proteasome; 20 nmol/L): had no proteasomal inhibitory influence
- time for which poly-ubiquitinylated proteins are detectable after a single dose (proteasome; 100 nmol/L single dose): three
- accumulation of poly-ubiquitinylated proteins (proteasome; 50 to 250 nmol/L): led to accumulation of poly-ubiquitinylated proteins
- time at which upregulation of eNOS mRNA begins (eNOS mRNA [1]): 16 h
- time at which eNOS mRNA is still elevated after a single dose (eNOS mRNA [1]; 100 nmol/L single dose): 7 days
- maximum eNOS mRNA level, times the control level (eNOS mRNA [1]; 100 nmol/L, 24 hours): 6.5 times the control level
- MG132-induced increase in eNOS mRNA after α-amanitin pretreatment (eNOS mRNA [1]; α-amanitin pretreatment 1 hour): without eliminating the increase in mRNA levels induced by MG132
- eNOS mRNA expression in presence of TNF-α versus TNF-α alone (eNOS mRNA [4]; HUVECs, 70 nM with TNF-α 1, 2.5, 5 ng/ml): substantially increased expression of eNOS mRNA
- time at which the increase in eNOS activity begins (eNOS [5]): 24 h
- duration of enhanced eNOS enzyme activity after a single dose (eNOS [5]; 100 nmol/L single dose): up to 10 days
- maximum relaxation to acetylcholine, percentage of phenylephrine precontraction (rat aortic rings; rat aortic rings pretreated 250 nmol/L): 89.4±5.7%
- endothelial-independent vasorelaxation in response to papaverine (rat aortic rings; [7]): remained unaffected
- endothelium-dependent relaxation to acetylcholine (rat aortic rings; [7]): significantly enhanced
- vasoreactivity to acetylcholine of TNF-α-damaged aortic rings (rat aortic rings; rat aortic rings, 250 nM with TNF-α 250 pg/ml): vasoreactivity can be significantly improved
- toxic doses by trypan blue exclusion (CPAE cells): higher than 250 nmol/L
- spontaneous beating time of cardiomyocytes at 46° C. ([6]; 1 μM, control hyperthermia 5+/−2 min): 28 ± 5 min
- induction of heat shock proteins at mRNA and protein levels [6]: time- and concentration-dependently induced Hsp72 and Hsp32
- protective effects at concentrations of less than 1 μM (cardiomyocytes): did not exhibit protective effects

Compound: TNF-α
- eNOS mRNA expression versus DMSO control (eNOS mRNA [4]; HUVECs, 1, 2.5 and 5 ng/ml): reduction and almost abolition of mRNA expression
- acetylcholine-dependent vasodilatation versus DMSO control (rat aortic rings; rat aortic rings, 250 pg/ml): significantly reduced

Compound: CSCC[C@@H](C=O)NC(=O)[C@H](CC(C)C)NC(=O)[C@H](CC(C)C)NC(C)=O [ALLM, N-acetyl-leucyl-leucyl-methioninal] (Ac-Leu-Leu-Met-aldehyde)
- upregulation of eNOS protein (specificity comparison with MG132) (eNOS [2]): had no effect; also recorded: failed to upregulate eNOS
- proteasome inhibition (poly-ubiquitinylated proteins), comparison with MG132 (proteasome; corresponding doses): failed to inhibit the proteasome
